Measurements reported in ChEMBL document CHEMBL1201862, “PubChem BioAssay data set” (2004).
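Compound exposure: 48 hours, 5 concentrations, 96-well plates. GI50: concentration for 50% inhibition of growth.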 Calls of active or inactive are those of the source. Cut-off read from the data, not from the text of the source: active = GI50 up to about 1.1 µM and inactive = higher.

Experiments:
Assay in all cases: growth of human tumour cells (NCI), 48 h
SK-MEL-2 = tested on: SK-MEL-2
HOP-62 = tested on: HOP-62
MDA-MB-231 = tested on: MDA-MB-231
IGROV-1 = tested on: IGROV-1
SR = tested on: SR
MOLT-4 = tested on: MOLT-4
HOP-92 = tested on: HOP-92
OVCAR-5 = tested on: OVCAR-5
COLO 205 = tested on: COLO 205
786-0 = tested on: 786-0
HT-29 = tested on: HT-29
A549 = tested on: A549
ACHN = tested on: ACHN
HCT-15 = tested on: HCT-15
LOX IMVI = tested on: LOX IMVI
OVCAR-8 = tested on: OVCAR-8
DU-145 = tested on: DU-145
PC-3 = tested on: PC-3
UACC-62 = tested on: UACC-62
NCI-H460 = tested on: NCI-H460
U-251 = tested on: U-251
UO-31 = tested on: UO-31
SN12C = tested on: SN12C
NCI-H23 = tested on: NCI-H23
K562 = tested on: K562
SNB-19 = tested on: SNB-19
OVCAR-3 = tested on: OVCAR-3
HL-60 = tested on: HL-60
NCI-H522 = tested on: NCI-H522
HCT-116 = tested on: HCT-116
MDA-N = tested on: MDA-N
BT-549 = tested on: BT-549
M14 = tested on: M14
NCI-H226 = tested on: NCI-H226
KM12 = tested on: KM12
RXF 393 = tested on: RXF 393
SF-268 = tested on: SF-268
Hs-578T = tested on: Hs-578T
MCF7 = tested on: MCF7
HCC 2998 = tested on: HCC 2998
NCI/ADR-RES = tested on: NCI/ADR-RES
RPMI-8226 = tested on: RPMI-8226
TK-10 = tested on: TK-10
SNB-75 = tested on: SNB-75
T47D = tested on: T47D
CAKI-1 = tested on: CAKI-1
UACC-257 = tested on: UACC-257
MDA-MB-435 = tested on: MDA-MB-435
SK-MEL-28 = tested on: SK-MEL-28
SK-MEL-5 = tested on: SK-MEL-5
OVCAR-4 = tested on: OVCAR-4
SF-295 = tested on: SF-295
SK-OV-3 = tested on: SK-OV-3
EKVX = tested on: EKVX
Malme-3M = tested on: Malme-3M
CCRF-CEM = tested on: CCRF-CEM
SW-620 = tested on: SW-620
SF-539 = tested on: SF-539
A498 = tested on: A498

For `COc1cc(C=C(c2ccc(N(C)C)cc2)c2ccc(N(C)C)cc2)c2ccccc2c1OC`, the GI50 (SK-MEL-2) was 33.9 µM (inactive), the GI50 (HOP-62) was 64 µM (inactive) and the GI50 (MDA-MB-231) was > 100 µM (inactive). For the same molecule, the GI50 (IGROV-1) was > 100 µM (inactive), the GI50 (SR) was 22.3 µM (inactive) and the GI50 (MOLT-4) was > 100 µM (inactive). For the same molecule, the GI50 (HOP-92) was > 100 µM (inactive), the GI50 (OVCAR-5) was > 100 µM (inactive) and the GI50 (COLO 205) was 55.7 µM (inactive). For the same molecule, the GI50 (786-0) was > 100 µM (inactive), the GI50 (HT-29) was 19 µM (inactive) and the GI50 (A549) was > 100 µM (inactive). The GI50 (ACHN) was 49.4 µM (inactive), the GI50 (HCT-15) was 40.4 µM and the GI50 (LOX IMVI) was 64.9 µM (inactive). The GI50 (OVCAR-8) was > 100 µM (inactive), the GI50 (DU-145) was > 100 µM (inactive) and the GI50 (PC-3) was 41.6 µM (inactive). The GI50 (UACC-62) was 27.4 µM (inactive), the GI50 (NCI-H460) was 96.2 µM (inactive) and the GI50 (U-251) was 54 µM (inactive). For the same molecule, the GI50 (UO-31) was > 100 µM (inactive), the GI50 (SN12C) was > 100 µM (inactive) and the GI50 (NCI-H23) was > 100 µM (inactive). The GI50 (K562) was 17.5 µM (inactive), the GI50 (SNB-19) was > 100 µM (inactive) and the GI50 (OVCAR-3) was 27.2 µM (inactive). For the same molecule, the GI50 (HL-60) was 9.29 µM (inactive), the GI50 (NCI-H522) was 25.4 µM (inactive) and the GI50 (HCT-116) was 35.1 µM (inactive). The GI50 (MDA-N) was 16.2 µM (inactive), the GI50 (BT-549) was 35.2 µM (inactive) and the GI50 (M14) was 63.1 µM (inactive). For the same molecule, the GI50 (NCI-H226) was 41 µM (inactive), the GI50 (KM12) was 38.4 µM (inactive) and the GI50 (RXF 393) was > 100 µM (inactive). For the same molecule, the GI50 (SF-268) was > 100 µM (inactive), the GI50 (Hs-578T) was 43.2 µM (inactive) and the GI50 (MCF7) was 26.2 µM (inactive). For the same molecule, the GI50 (HCC 2998) was 87.7 µM (inactive), the GI50 (NCI/ADR-RES) was 23.4 µM (inactive) and the GI50 (RPMI-8226) was 45.8 µM (inactive). For the same molecule, the GI50 (TK-10) was > 100 µM (inactive), the GI50 (SNB-75) was 36.3 µM (inactive) and the GI50 (T47D) was > 100 µM (inactive). For the same molecule, the GI50 (CAKI-1) was > 100 µM (inactive), the GI50 (UACC-257) was 76.7 µM (inactive) and the GI50 (MDA-MB-435) was 22.3 µM (inactive). The GI50 (SK-MEL-28) was 93.8 µM (inactive), the GI50 (SK-MEL-5) was 51.9 µM (inactive) and the GI50 (OVCAR-4) was 70.3 µM (inactive). For the same molecule, the GI50 (SF-295) was 30.3 µM (inactive), the GI50 (SK-OV-3) was > 100 µM (inactive) and the GI50 (EKVX) was > 100 µM (inactive). The GI50 (Malme-3M) was 70.8 µM (inactive) and the GI50 (CCRF-CEM) was 18.6 µM (inactive).

In the case of `CCOC(=O)NC(Nc1ccc(S(=O)(=O)Nc2ncccn2)cc1)(C(=O)OCC)C(F)(F)F` (stereo not drawn), the GI50 (SK-MEL-2) is reported as > 100 µM (inactive), the GI50 (HOP-62) is reported as > 100 µM (inactive) and the GI50 (MDA-MB-231) is reported as > 100 µM (inactive). For the same molecule, the GI50 (IGROV-1) was > 100 µM (inactive), the GI50 (SR) was > 100 µM (inactive) and the GI50 (MOLT-4) was > 100 µM (inactive). The GI50 (HOP-92) was > 100 µM (inactive), the GI50 (OVCAR-5) was > 100 µM (inactive) and the GI50 (COLO 205) was > 100 µM (inactive). The GI50 (786-0) was > 100 µM (inactive), the GI50 (HT-29) was > 100 µM (inactive) and the GI50 (A549) was > 100 µM (inactive). The GI50 (ACHN) was > 100 µM (inactive), the GI50 (HCT-15) was > 100 µM and the GI50 (LOX IMVI) was > 100 µM (inactive). For the same molecule, the GI50 (OVCAR-8) was > 100 µM (inactive), the GI50 (DU-145) was > 100 µM (inactive) and the GI50 (PC-3) was > 100 µM (inactive). For the same molecule, the GI50 (UACC-62) was > 100 µM (inactive), the GI50 (NCI-H460) was > 100 µM (inactive) and the GI50 (U-251) was > 100 µM (inactive). For the same molecule, the GI50 (UO-31) was > 100 µM (inactive), the GI50 (SN12C) was > 100 µM (inactive) and the GI50 (NCI-H23) was > 100 µM (inactive). For the same molecule, the GI50 (K562) was > 100 µM (inactive), the GI50 (SNB-19) was > 100 µM (inactive) and the GI50 (OVCAR-3) was > 100 µM (inactive). The GI50 (HL-60) was > 100 µM (inactive), the GI50 (NCI-H522) was > 100 µM (inactive) and the GI50 (HCT-116) was > 100 µM (inactive). For the same molecule, the GI50 (MDA-N) was > 100 µM (inactive), the GI50 (BT-549) was > 100 µM (inactive) and the GI50 (M14) was > 100 µM (inactive). For the same molecule, the GI50 (NCI-H226) was > 100 µM (inactive), the GI50 (KM12) was > 100 µM (inactive) and the GI50 (SF-268) was > 100 µM (inactive). For the same molecule, the GI50 (Hs-578T) was > 100 µM (inactive), the GI50 (SW-620) was > 100 µM (inactive) and the GI50 (MCF7) was 0.279 µM (active). For the same molecule, the GI50 (HCC 2998) was > 100 µM (inactive), the GI50 (NCI/ADR-RES) was > 100 µM (inactive) and the GI50 (RPMI-8226) was > 100 µM (inactive). For the same molecule, the GI50 (SNB-75) was > 100 µM (inactive), the GI50 (T47D) was > 100 µM (inactive) and the GI50 (CAKI-1) was > 100 µM (inactive). For the same molecule, the GI50 (UACC-257) was > 100 µM (inactive), the GI50 (MDA-MB-435) was > 100 µM (inactive) and the GI50 (SK-MEL-28) was > 100 µM (inactive). The GI50 (SK-MEL-5) was > 100 µM (inactive), the GI50 (SF-539) was > 100 µM (inactive) and the GI50 (OVCAR-4) was > 100 µM (inactive). The GI50 (SF-295) was > 100 µM (inactive), the GI50 (SK-OV-3) was > 100 µM (inactive) and the GI50 (EKVX) was > 100 µM (inactive). For the same molecule, the GI50 (Malme-3M) was > 100 µM (inactive) and the GI50 (CCRF-CEM) was > 100 µM (inactive).

For `OCCCN=C1CCCCC1`, the GI50 (SK-MEL-2) was 56.8 µM (inactive), the GI50 (HOP-62) was > 100 µM (inactive) and the GI50 (MDA-MB-231) was > 100 µM (inactive). The GI50 (IGROV-1) was > 100 µM (inactive), the GI50 (SR) was > 100 µM (inactive) and the GI50 (MOLT-4) was > 100 µM (inactive). The GI50 (HOP-92) was > 100 µM (inactive), the GI50 (OVCAR-5) was > 100 µM (inactive) and the GI50 (COLO 205) was > 100 µM (inactive). For the same molecule, the GI50 (786-0) was > 100 µM (inactive), the GI50 (HT-29) was > 100 µM (inactive) and the GI50 (A549) was > 100 µM (inactive). The GI50 (ACHN) was > 100 µM (inactive), the GI50 (HCT-15) was > 100 µM and the GI50 (LOX IMVI) was > 100 µM (inactive). For the same molecule, the GI50 (OVCAR-8) was > 100 µM (inactive), the GI50 (DU-145) was > 100 µM (inactive) and the GI50 (PC-3) was > 100 µM (inactive). The GI50 (UACC-62) was > 100 µM (inactive), the GI50 (NCI-H460) was > 100 µM (inactive) and the GI50 (U-251) was > 100 µM (inactive). For the same molecule, the GI50 (UO-31) was > 100 µM (inactive), the GI50 (SN12C) was > 100 µM (inactive) and the GI50 (NCI-H23) was > 100 µM (inactive). The GI50 (K562) was > 100 µM (inactive), the GI50 (A498) was > 100 µM (inactive) and the GI50 (SNB-19) was > 100 µM (inactive). For the same molecule, the GI50 (OVCAR-3) was > 100 µM (inactive), the GI50 (HL-60) was > 100 µM (inactive) and the GI50 (NCI-H522) was 77.4 µM (inactive). For the same molecule, the GI50 (HCT-116) was > 100 µM (inactive), the GI50 (MDA-N) was > 100 µM (inactive) and the GI50 (BT-549) was > 100 µM (inactive). The GI50 (M14) was > 100 µM (inactive), the GI50 (NCI-H226) was > 100 µM (inactive) and the GI50 (KM12) was > 100 µM (inactive). For the same molecule, the GI50 (RXF 393) was > 100 µM (inactive), the GI50 (SF-268) was > 100 µM (inactive) and the GI50 (Hs-578T) was 69.8 µM (inactive). The GI50 (SW-620) was > 100 µM (inactive), the GI50 (MCF7) was > 100 µM (inactive) and the GI50 (NCI/ADR-RES) was > 100 µM (inactive). The GI50 (RPMI-8226) was > 100 µM (inactive), the GI50 (TK-10) was > 100 µM (inactive) and the GI50 (T47D) was > 100 µM (inactive). The GI50 (CAKI-1) was > 100 µM (inactive), the GI50 (UACC-257) was > 100 µM (inactive) and the GI50 (MDA-MB-435) was > 100 µM (inactive). The GI50 (SK-MEL-28) was > 100 µM (inactive), the GI50 (SK-MEL-5) was > 100 µM (inactive) and the GI50 (SF-539) was > 100 µM (inactive). The GI50 (OVCAR-4) was > 100 µM (inactive), the GI50 (SF-295) was > 100 µM (inactive) and the GI50 (SK-OV-3) was > 100 µM (inactive). The GI50 (EKVX) was > 100 µM (inactive) and the GI50 (Malme-3M) was > 100 µM (inactive).
